Source: US20060269504A1, “Use of alkyl resorcinols in the treatment of acne” (priority 2003, published 2006)
Values after ≈ are worked out from the molar mass of the structure shown. “Also recorded” adds a separate entry of the source. Read-outs that look alike come from different tables or passages of the source.

Columns and labels:
[1] = test system: P. acnes G63 and P. avidum NCTC 11864; test: In vitro propionibacterial model: glucose biotransformation to propionic acid (GC) and culture viability (TVC); assay type: cell-based; conditions: for BIC50 MoA(s), mode(s) of action at BIC50 levels: P. acnes G63 and P. avidum NCTC 11864, by reference to culture viability data; for BIC50, mean concentration at 50% inhibition of glucose biotransformation to propionic acid: mean of P. acnes G63 and P. avidum NCTC 11864, anaerobic, 35° C.; for BIC50, mean concentration at 50% inhibition of glucose biotransformation to propionic acid / MBC, range of minimum bactericidal levels: 24 h; for MBC, range of minimum bactericidal levels: range for P. acnes G63 and P. avidum NCTC 11864, minimum level effecting >3 log10 reduction in viability
Protocol: (§1) The propionibacterial model involved the use of 7 ml glass vials, to which were added 6.0 ml synthetic medium (see below), supplemented with glucose substrate (2.0 mg/ml). The corynebacterial model involved the use of 250 ml baffled shake flasks, to which were added 30.0 ml synthetic medium (see below), supplemented with fatty acid substrate (2.0 mg/ml pentadecanoic acid). To each vial or flask (other than controls) was also added one of the indicated test materials, from a 1.0-10.0% (w/v) stock solution in 50% (v/v) ethanol. Each assay was inoculated with fresh bacterial biomass (Propionibacterium acnes G63 [skin isolate], P. avidum NCTC 11864 or Corynebacterium sp. NCIMB 40928), pre-grown for 24-48 h, under aerobic (corynebacteria) or anaerobic (propionibacteria) conditions, in TSBT (see below), to give starting optical densities (A590) of ˜1.0. Following inoculation, the vials and flasks were incubated aerobically (corynebacteria) or anaerobically (propionibacteria) at 35° C., with agitation (120 rpm), for 24 h. After this time, culture viability was determined by total viable count (TVC) analysis on ACX plates (see below), following serial dilution in quarter-strength Ringers solution. Also, at the end of each experiment, the extent of glucose or fatty acid biotransformation to propionic acid was measured by capillary gas chromatography (GC) (see below), and the dose response data used to calculate, for each active ingredient, a BIC so value (50% biotransformation inhibition concentration). The mode of action (bacteriostatic or bactericidal) at this level was elucidated by reference to culture viability data, which was also used to determine the MBC (minimum bactericidal concentration), defined as the minimum level of each active effecting a >3 log10 ml^31 1 reduction in viability (Tables 1 & 2). Finally, the data for P. acnes G63 and P. avidum NCTC 11864 were combined to generate mean and range anti-propionibacterial values (Table 1).
(§2) KH2PO4 (1.6); (NH4)2HPO4 (5.0); Na2SO4 (0.38); KNO3 (0.1); NaHCO3 (1.0); sodium thioglycolate (1.0); sodium pyruvate (1.0); yeast nitrogen base (Difco) (3.35); MgCl2.6H2O (0.5).
(§3) Tryptone soya broth (Merck) (30.0); yeast extract (Beta Lab) (10.0); Tween 80™ (5.0).
(§4) blood agar base no. 2 (Oxoid) (39.5); yeast extract (Beta Lab) (3.0); glucose (2.0); Tween 80 ™ (5.0); defibrinated horse blood (50 ml/l).
(§5) 1.0 ml aliquots from each assay vial were transferred into sampling tubes, an internal standard (1.0 mg/ml caproic acid) added to each tube, and the culture medium acidified (pH˜2) by the addition of HCl. Liquid-liquid extraction was then carried out using 2 vol (2 ml) ethyl acetate, with organic and aqueous phases being resolved by centrifugation (2000 rpm, 2 min). ˜0.75 ml of each organic (upper) phase was then transferred to a fresh sampling tube prior to analysis on a Perkin Elmer 8000 (Series 2) GC fitted with a 15 m×0.32 mm (internal diameter) FFAP fused silica capillary column (film thickness 0.25 μm) (Quadrex). Metabolite levels were quantified by comparison of peak areas with known amounts of both internal (caproic acid) and externally-run (propionic acid) standards. GC running conditions as indicated: injector (split/splitless), 300° C.; detector (flame ionisation), 300° C.; oven, 80° C. (2 min), 80-155° C. (7.5° C./min), 155° C. (1 min); injection volume, 1.0 μl.

[2] = test system: Corynebacterium sp. NCIMB 40928; test: In vitro corynebacterial model: pentadecanoic acid biotransformation to propionic acid (GC) and culture viability (TVC); assay type: cell-based; conditions: for BIC50, concentration at 50% inhibition of pentadecanoic acid biotransformation to propionic acid: aerobic, 35° C.; for BIC50 MoA(s), mode of action at BIC50 level: by reference to culture viability data; for MBC: read-out: MBC, minimum bactericidal levels
Protocol: as §1, §2, §3, §4, §5

[3] = Corynebacterium sp. NCIMB 40928, 24 h
[4] = Corynebacterium sp. NCIMB 40928

Row | Structure (SMILES) | BIC50 MoA(s), mode(s) of action at BIC50 levels [1] | selectivity for Propionibacterium spp. compared to other bacteria normally present on the skin ([1]; comparison of Tables 1 and 2, versus Triclosan) | BIC50, mean concentration at 50% inhibition of glucose biotransformation to propionic acid [1] [ppm] | MBC, range of minimum bactericidal levels [1] | anti-propionibacterial properties compared with Triclosan ([1]; summary of Table 1) | BIC50, concentration at 50% inhibition of pentadecanoic acid biotransformation to propionic acid [2, 3] [ppm] | BIC50 MoA(s), mode of action at BIC50 level [2, 4] | MBC ([2]; NCIMB40928, Corynebacterium sp. NCIMB 40928, minimum level effecting >3 log10 reduction in viability, 24 h) [µg/mL] | MBC ([2]; Corynebacterium, NCIMB40928, 24 h) [µg/mL]
1 | CCCCCCc1ccc(O)cc1O [4-Hexylresorcinol, 4-hexylresorcinol] | Bacteriostatic/; also recorded: Bactericidal | far greater selectivity than Triclosan | 42 | 50-100 ppm | as good as those of Triclosan | 118 | Bacteriostatic | > 500 | 
2 | Oc1cc(Cl)ccc1Oc1ccc(Cl)cc1Cl [Triclosan, 2,4,4′-trichloro-2′-hydroxydiphenyl ether, reference compound] | Bactericidal; also recorded: Bacteriostatic/ |  | 39 | 50-100 ppm |  | 20 | Bacteriostatic |  | 50 (≈ 173 µM)
